Assay results: patent publication US10202404B2, “Polycyclic pyridone derivative having integrase inhibitory activity” (Shionogi & Co., Ltd., priority 2014, dated 2019)

System: HIV
Assay: Anti-HIV activity (MT-4 cells, MTT)
Type: cell-based
Conditions: 50% HIV inhibition concentration, MT-4 cells infected with HIV, incubated 4 days, MTT readout
Experimental: Previously, a series of two-fold dilution on test samples were carried out in a 96-well plate (50 μL/well). Two plates were made for measuring anti-HIV activity and measuring cytotoxicity. For each agent, measurement in duplicate was carried out. An MT-4 cell suspension of 2.5×10^5/mL was dispensed at 100 μL/well onto the 96-well plate containing the test samples. An HIV virus solution was dispensed at 50 μL/well onto the 96-well plate containing the test samples and the cell. To the plate for measuring cytotoxicity, a culture solution was dispensed at 50 μL/well. It was mixed by a plate mixer, and then incubated in a CO2 incubator for 4 days. […] Thirty microliters of a MTT (3-(4,5-dimethylthiazol-2-yl)-2,5-diphenyltetrazolium bromide) solution was dispensed to each well.
A reaction was allowed to occur in a CO2 incubator for an hour. From each well, 150 μL of the supernatant was removed such that cells are not sucked. One-hundred and fifty microliters of a cell lysis solution was added thereto, and then it was mixed well by a plate mixer until the whole cells are lysed. The mixed 96-well plates were measured by a microplate reader at two wavelengths, 560 nm/690 nm. Based on the following calculation formula, 50% HIV inhibition concentration (EC50) was calculated. EC50=10Z Z=(50%−Low %)/(High %−Low %)×{log(High conc.)−log(Low conc.)}+log(Low conc.) Based on the following calculation formula, 50% cytotoxic concentration (CC50) was calculated. CC50=10Z Z=(50%−Low %)/(High %−Low %)×{log(High conc.)−log(Low conc.)}+log(Low conc.) Based on the following calculation formula, selectivity index (ST) was calculated. SI=CC50/EC50 (Result)

[1] = Human immunodeficiency virus 1, MT4, 96 h

| EC50 [nM] | SMILES | EC50 [1] [nM] |
| --- | --- | --- |
|  | O=C1c2c(O)c(=O)c(-c3ncc(Cc4ccc(F)cc4F)s3)cn2C[C@@H]2CCCN12 [Compound B-13] | 7.7 |
|  | C[C@H]1CO[C@@H]2Cn3cc(-c4ncc(Cc5cccc(Cl)c5F)s4)c(=O)c(O)c3C(=O)N12 [Compound A-2] | 2.5 |
|  | C[C@@H]1CCO[C@H]2Cn3cc(-c4cn(Cc5cccc(Cl)c5F)cn4)c(=O)c(O)c3C(=O)N12 [Compound A-50] | 12 |
|  | O=C1c2c(O)c(=O)c(-c3nnc(Cc4ccc(F)cc4F)s3)cn2CC2OCC3(COC3)CN12 (stereo not shown) [Compound A-58] | 10 |
|  | O=C1c2c(O)c(=O)c(-c3nnc(Cc4ccc(F)cc4F)s3)cn2C[C@H]2O[C@@H]3COC[C@@H]3N12 [Compound A-73] | 5.7 |
| 11 | C[C@@H]1CCO[C@H]2Cn3cc(-c4cnc(Cc5ccc(F)cc5F)s4)c(=O)c(O)c3C(=O)N12 [Compound A-40] |  |
|  | C[C@H]1CCO[C@@H]2Cn3cc(-c4ncc(Cc5cccc(Cl)c5F)s4)c(=O)c(O)c3C(=O)N12 [Compound A-11] | 8.8 |
|  | C[C@@H]1CCO[C@@H]2Cn3cc(-c4ncc(Cc5ccc(F)cc5F)s4)c(=O)c(O)c3C(=O)N12 [Compound A-13] | 6 |
|  | C[C@@H]1CCO[C@H]2Cn3cc(-c4nnc(Cc5c(F)ccc(Cl)c5F)s4)c(=O)c(O)c3C(=O)N12 [Compound A-25] | 3.4 |
|  | C[C@H]1CO[C@@H]2Cn3cc(-c4cn(Cc5ccc(F)cc5F)cn4)c(=O)c(O)c3C(=O)N12 [Compound A-44] | 5.1 |
|  | O=C1c2c(O)c(=O)c(-c3nnc(Cc4ccc(F)cc4F)s3)cn2C[C@H]2CCCN12 [Compound B-3] | 3.7 |
|  | O=C1c2c(O)c(=O)c(-c3nnc(Cc4ccc(F)cc4F)s3)cn2C[C@H]2O[C@@H]3CC[C@@H](C3)N12 [Compound A-65] | 4.2 |
|  | C[C@@H]1CO[C@H]2Cn3cc(-c4nnc(Cc5cccc(Cl)c5F)s4)c(=O)c(O)c3C(=O)N2C1 [Compound A-22] | 1.7 |
|  | C[C@@H]1CCO[C@H]2Cn3cc(-c4nnc(Cc5c(F)cc(F)cc5F)s4)c(=O)c(O)c3C(=O)N12 [Compound A-23] | 2.6 |
|  | C[C@@H]1CCO[C@H]2Cn3cc(-c4nnc(Cc5ccc(F)cc5F)s4)c(=O)c(OCOC(=O)C(C)(C)C)c3C(=O)N12 [Compound D-3] | 4.8 |
|  | C[C@@H]1N2C(=O)c3c(O)c(=O)c(-c4nnc(Cc5ccc(F)cc5F)s4)cn3C[C@H]2OCC1(F)F [Compound A-77] | 7.2 |
|  | COc1c(F)ccc(Cc2nnc(-c3cn4c(c(O)c3=O)C(=O)N3[C@H](C)CCO[C@H]3C4)s2)c1F [Compound A-32] | 12 |
|  | C[C@H]1CO[C@@H]2Cn3cc(-c4ncc(Cc5ccc(F)cc5F)s4)c(=O)c(O)c3C(=O)N12 [Compound A-6] | 1.9 |
|  | O=C1c2c(O)c(=O)c(-c3nnc(Cc4ccc(F)cc4F)s3)cn2CN2CCCCN12 [Compound C-15] | 1.7 |
|  | C[C@H]1CO[C@@H]2Cn3cc(-c4ncc(Cc5c(F)cc(F)cc5F)s4)c(=O)c(O)c3C(=O)N12 [Compound A-14] | 1.2 |
|  | CCN1C(=O)c2c(O)c(=O)c(-c3nnc(Cc4ccc(F)cc4F)s3)cn2CN1C [Compound C-23] | 1.2 |
|  | CCN1CN(CCOC)C(=O)c2c(O)c(=O)c(-c3nnc(Cc4cccc(Cl)c4F)s3)cn21 [Compound C-4] | 2.1 |
|  | O=C1c2c(O)c(=O)c(-c3nnc(Cc4ccc(F)cc4F)s3)cn2C[C@H]2COCCN12 [Compound B-11] | 5.9 |
|  | C[C@H]1CO[C@@H]2Cn3cc(-c4cnc(Cc5ccc(F)cc5F)s4)c(=O)c(O)c3C(=O)N12 [Compound A-42] | 10 |
|  | CN1Cn2cc(-c3nnc(Cc4ccc(F)cc4F)s3)c(=O)c(O)c2C(=O)N1C [Compound C-18] | 2.3 |

| EC50 [nM] | SMILES | EC50 [1] [nM] |
| --- | --- | --- |
| 18 | C[C@@H]1CCO[C@H]2Cn3cc(-c4nnc(Cc5ccc(F)cc5F)[nH]4)c(=O)c(O)c3C(=O)N12 [Compound A-52] |  |
|  | O=C1c2c(O)c(=O)c(-c3nnc(Cc4ccc(F)cc4F)s3)cn2CN2CCOCCN12 [Compound C-16] | 8.5 |
|  | CCN1CN(CCCOC)C(=O)c2c(O)c(=O)c(-c3nnc(Cc4ccc(F)cc4F)s3)cn21 [Compound C-7] | 2 |
|  | Cc1nc(-c2cn3c(c(O)c2=O)C(=O)N2[C@@H](C)CO[C@@H]2C3)sc1Cc1ccc(F)cc1F [Compound A-47] | 3.4 |
|  | COCCOC(=O)Oc1c2n(cc(-c3nnc(Cc4ccc(F)cc4F)s3)c1=O)C[C@@H]1OCC[C@@H](C)N1C2=O [Compound D-4] | 4.1 |
|  | C[C@H]1CCO[C@@H]2Cn3cc(-c4nnc(Cc5cccc(Cl)c5F)s4)c(=O)c(O)c3C(=O)N12 [Compound A-28] | 3.3 |
|  | O=C1c2c(O)c(=O)c(-c3ncc(Cc4cccc(Cl)c4F)s3)cn2C[C@H]2CCCN12 [Compound B-17] | 5.3 |
|  | COCCN1CN(C)n2cc(-c3nnc(Cc4ccc(F)cc4F)s3)c(=O)c(O)c2C1=O [Compound C-3] | 1.1 |
|  | C[C@@H]1CCO[C@H]2Cn3cc(-c4nnc(Cc5ccc(F)c(Cl)c5F)s4)c(=O)c(O)c3C(=O)N12 [Compound A-26] | 3.8 |
|  | C[C@H]1CO[C@@H]2Cn3cc(-c4nnc(Cc5cccc(Cl)c5F)s4)c(=O)c(O)c3C(=O)N12 [Compound A-18] | 2.3 |
|  | C[C@@H]1CO[C@H]2Cn3cc(-c4nnc(Cc5cccc(Cl)c5F)s4)c(=O)c(O)c3C(=O)N12 [Compound A-20] | 3 |
|  | CC1CCN2Cn3cc(-c4nnc(Cc5ccc(F)cc5F)s4)c(=O)c(O)c3C(=O)N12 (stereo not shown) [Compound C-28] | 4.8 |
|  | O=C1c2c(O)c(=O)c(-c3nnc(Cc4ccc(F)cc4F)s3)cn2C[C@@H]2COCCN12 [Compound B-10] | 10 |
|  | C[C@H]1N2C(=O)c3c(O)c(=O)c(-c4nnc(Cc5ccc(F)cc5F)s4)cn3C[C@@H]2OCC12CC2 [Compound A-57] | 1.7 |
|  | O=C1c2c(O)c(=O)c(-c3nnc(Cc4ccc(F)cc4F)s3)cn2C[C@H]2OCC[C@@H](C(F)(F)F)N12 [Compound A-70] | 8 |
|  | C[C@@H]1CCO[C@H]2Cn3cc(-c4cc(Cc5ccc(F)cc5F)sn4)c(=O)c(O)c3C(=O)N12 [Compound A-71] | 9.3 |
|  | C[C@H]1CCN(C2CC2)[C@@H]2Cn3cc(-c4nnc(Cc5cccc(Cl)c5F)s4)c(=O)c(O)c3C(=O)N12 [Compound A-56] | 4 |
|  | COC[C@H]1CCN2C(=O)c3c(O)c(=O)c(-c4nnc(Cc5ccc(F)cc5F)s4)cn3C[C@H]2O1 [Compound A-69] | 5.1 |
|  | O=C1c2c(O)c(=O)c(-c3ncc(Cc4cccc(Cl)c4F)s3)cn2C[C@@H]2CCCN12 [Compound B-14] | 10 |
|  | C[C@@H]1CCS[C@H]2Cn3cc(-c4nnc(Cc5ccc(F)cc5F)s4)c(=O)c(O)c3C(=O)N12 [Compound A-76] | 4.7 |
|  | C[C@H]1CN(C2CC2)[C@@H]2Cn3cc(-c4nnc(Cc5ccc(F)cc5F)s4)c(=O)c(O)c3C(=O)N12 [Compound A-60] | 2 |
|  | COCCN1Cn2cc(-c3nnc(Cc4ccc(F)cc4F)s3)c(=O)c(O)c2C(=O)N1C(C)C [Compound C-22] | 1.3 |
|  | O=C1c2c(O)c(=O)c(-c3nnc(Cc4ccc(F)cc4F)s3)cn2CN2CC3(CC3)CN12 [Compound C-24] | 2.4 |
|  | COC[C@@H]1CCO[C@H]2Cn3cc(-c4nnc(Cc5ccc(F)cc5F)s4)c(=O)c(O)c3C(=O)N12 [Compound A-67] | 4.2 |
